Laboratory results published in patent US4728650A, “3,4-dihydrobenzopyran derivatives and medicinal uses thereof” (Kuraray Co., Ltd., priority 1985, dated 1988).

What was measured:
[1] = Expectorant action: tracheal secretion of fluorescein sodium in rats; type: in vivo, Wistar rats (male); conditions: 50 mg/kg oral
Description: Male Wistar rats (body weights, 280-320 g) were used in groups of 7 animals. Each test compound was orally administered in dose of 50 mg/kg body weight to rats. Immediately after administration, 0.3 ml/100 g (body weight of rat) of a 1% aqueous solution of fluorescein sodium was injected into the caudal vein. One hour after administration of the test compound, pentobarbital sodium 100 mg/kg (body weight of rat) was injected intraperitoneally so that deep anesthesia might cause the rat to die. Then, the trachea was exposed and an incision was made in the trachea. A sonde was inserted thereinto and ligation was made. To the sonde was connected a syringe containing 10 ml of a 5% solution of sodium hydrogen carbonate kept at 37° C. and 4 ml of the solution of sodium hydrogen carbonate was injected into the lung. After 5 minutes, the fluid in the lung was removed. After this procedure of injection and removal was repeated three times, the fluid removed from the lung was filtered and the filtrate was made up with water to make 20 ml. The intensity of fluroescence was determined at the excitation wave length of 491 nm and the fluorescence wave length of 510 nm using a spectrophotometer (HITACHI model 650-10, Hitachi, Ltd.). The amount of fluorescein sodium secreted into the trachea was estimated from the intensity of fluorescence. Each test compound was administered as suspended in a gum arabic solution in concentration of 5%.

[2] = Hydrochloric acid-ethanol-induced ulcer in rats; type: in vivo, Wistar rats (male)
Description: Male Wistar rats (body weights, 170-210 g) were used in groups of 6 to 8 animals. Indomethacin, 20 mg/kg body weight, was injected subcutaneously to rats which had been deprived of food for 24 hours. After 7 hours, the stomach was excised under ether anesthesia. A 10% aqueous solution of formaldehyde was infused into the stomach until the stomach was inflated and, then, the stomach was immersed in a 10% aqueous solution of formaldehyde for 10 minutes for fixation of the tissue. After fixation, an incision was made along the greater curvature and the length of ulcers occurring in the glandular portion of the stomach was measured. The total length of ulcers occurring in a rat was taken as an ulcer index. Each test compound was orally administered, as suspended in a gum arabic solution in concentration of 5%, to rats 10 minutes before subcutaneous injection of indomethacin. Male Wistar rats (body weights, 160-190 g) were used in groups of 6 to 8 animals. One milliliter of a 60% aqueous solution of ethanol containing 150 mM hydrochloric acid was administered orally to rats which had been deprived of food for 24 hours. After one hour, the stomach was excised under ether anesthesia. In a manner similar to that described in study for indomethacin-induced ulcer, the ulcer index was determined. Each test compound was orally administered, as suspended in a gum arabic solution in concentration of 5%, to rats 1 hour before administration of hydrochloric acid-ethanol.

[3] = Rattus norvegicus, po, 1 h, Table 8, 50 mg/kg p.o.
[4] = Table 8, 50 mg/kg p.o., control 9.69 ± 1.68
[5] = Rattus norvegicus, po, 1 h, Table 7, 50 mg/kg p.o.
[6] = Table 5, 50 mg/kg p.o., control 11.09 ± 1.49
[7] = Rattus norvegicus, po, 1 h, Table 12, 25 mg/kg p.o.
[8] = Rattus norvegicus, po, 1 h, Table 7, 12.5 mg/kg p.o.
[9] = Rattus norvegicus, po, 1 h, Table 7, 25 mg/kg p.o.
[10] = Rattus norvegicus, po, 1 h, Table 12, 50 mg/kg p.o.
[11] = Rattus norvegicus, po, 1 h, Table 12, 100 mg/kg p.o.
[12] = Table 12, 25 mg/kg p.o., control 9.93 ± 0.91
[13] = Table 12, 50 mg/kg p.o., control 9.93 ± 0.91
[14] = Table 12, 100 mg/kg p.o., control 9.93 ± 0.91
[15] = Table 6, 25 mg/kg p.o., control 9.69 ± 1.68
[16] = Table 5, 25 mg/kg p.o., control 11.09 ± 1.49

SMILES: COc1ccc(CN2CCN(C(=O)CC3(C)CCc4c(C)c(OC)c(C)c(C)c4O3)CC2)c(OC)c1OC (stereo not drawn) [Compound (28), 1-[(3,4-Dihydro-6-methoxy-2,5,7,8-tetramethyl-2H-benzopyran-2-yl)acetyl]-4-(2,3,4-trimethoxybenzyl)piperazine]
- Secretory amount (mean ± S.E.) ([1]; Table 14, control 1.60 ± 0.18): 3.28 ± 0.31 μg/100 g (body weight of rat)/

SMILES: COc1c(C)c(C)c2c(c1C)CCC(C)(CCN1CCN(CC=C(C)C)CC1)O2 (stereo not drawn) [Compound (13), 3,4-Dihydro-6-methoxy-2-[2-[4-(3-methyl-2-butenyl)piperazin-1-yl]ethyl]-2,5,7,8-tetramethyl-2H-benzopyran]
- inhibition in vivo at 50 mg/kg [2, 3]: 100%
- Ulcer index (mean ± S.E.) [2, 4]: 0.00 ± 0.00 mm

SMILES: CNC(=N)NCCC1(C)CCc2c(C)c(OC)c(C)c(C)c2O1 (stereo not drawn) [Compound (11), N-[2-(3,4-Dihydro-6-methoxy-2,5,7,8-tetramethyl-2H-benzopyran-2-yl)ethyl]-N'-methylguanidine]
- inhibition in vivo at 50 mg/kg [2, 5]: 98.2%
- Ulcer index (mean ± S.E.) [2, 6]: 0.20 ± 0.14 mm

SMILES: COc1ccc2c(c1)OC(C)(CCN1CCN(C(=O)c3cc(OC)c(OC)c(OC)c3)CC1)CC2 (stereo not drawn) [Compound (25), 1-[2-(3,4-Dihydro-7-methoxy-2-methyl-2H-benzopyran-2-yl)ethyl]-4-(3,4,5-trimethoxybenzoyl)piperazine]
- Secretory amount (mean ± S.E.) ([1]; Table 14, control 1.60 ± 0.18): 3.08 ± 0.19 μg/100 g (body weight of rat)/

SMILES: COc1c(C)c(C)c2c(c1C)CCC(C)(CCN1CCN(CCO)CC1)O2 (stereo not drawn) [Compound (35), 1-[2-(3,4-Dihydro-6-methoxy-2,5,7,8-tetramethyl-2H-benzopyran-2-yl)ethyl]-4-(2-hydroxyethyl)piperazine]
- Secretory amount (mean ± S.E.) ([1]; Table 16, control 6.455 ± 0.766): 10.297 ± 1.841 μg/100 g (body weight of rat)/

SMILES: COc1ccc(CN2CCN(C(=O)C3(C)CCc4c(C)c(OC)c(C)c(C)c4O3)CC2)c(OC)c1OC (stereo not drawn) [Compound (30), 1-[(3,4-Dihydro-6-methoxy-2,5,7,8-tetramethyl-2H-benzopyran-2-yl)carbonyl]-4-(2,3,4-trimethoxybenzyl)piperazine]
- Secretory amount (mean ± S.E.) ([1]; Table 13, control 5.30 ± 0.40): 5.45 ± 0.54 μg/100 g (body weight of rat)/

SMILES: COc1c(C)c(C)c2c(c1C)CCC(C)(CCN1CCNCC1)O2 (stereo not drawn) [Compound (12), 3,4-Dihydro-6-methoxy-2-[2-(piperazin-1-yl)ethyl]-2,5,7,8-tetramethyl-2H-benzopyran]
- inhibition in vivo at 25 mg/kg ([2]; Rattus norvegicus, po, 1 h, Table 8, 25 mg/kg p.o.): 98.7%
- inhibition in vivo at 50 mg/kg [2, 3]: 100%
- Ulcer index (mean ± S.E.) ([2]; Table 8, 25 mg/kg p.o., control 9.69 ± 1.68): 0.13 ± 0.13 mm
- Ulcer index (mean ± S.E.) [2, 4]: 0.00 ± 0.00 mm

SMILES: COc1c(C)c(C)c2c(c1C)CCC(C)(CCN1CCN(CC=C(C)CCC=C(C)CCC=C(C)C)CC1)O2 (stereo not drawn) [Compound (15), 3,4-Dihydro-6-methoxy-2-[2-[4-(3,7,11-trimethyl-2,6,10-dodecatrienyl)piperazin-1-yl]ethyl]-2,5,7,8-tetramethyl-2H-benzopyran]
- inhibition in vivo at 50 mg/kg [2, 3]: 100%
- Ulcer index (mean ± S.E.) [2, 4]: 0.00 ± 0.00 mm

SMILES: CC(=O)CCC=C(C)CC/C=C(\C)CC/C=C(\C)CCC=C(C)C [Teprenone, reference compound]
- inhibition in vivo at 25 mg/kg [2, 7]: 78.4%
- inhibition in vivo at 12.5 mg/kg [2, 8]: 33.8%
- inhibition in vivo at 25 mg/kg [2, 9]: 78.4%
- inhibition in vivo at 50 mg/kg [2, 10]: 91.4%
- inhibition in vivo at 100 mg/kg [2, 11]: 96.3%
- Ulcer index (mean ± S.E.) [2, 12]: 2.15 ± 1.26 mm
- Ulcer index (mean ± S.E.) [2, 13]: 0.85 ± 0.61 mm
- Ulcer index (mean ± S.E.) [2, 14]: 0.37 ± 0.37 mm

SMILES: CC1(CC(=O)NC(=N)N)CCc2cc(Cl)ccc2O1 (stereo not drawn) [Compound (8), N-(3,4-Dihydro-6-chloro-2-methyl-2H-benzopyran-2-yl)acetylguanidine]
- inhibition in vivo at 25 mg/kg [2, 9]: 100%
- Ulcer index (mean ± S.E.) [2, 15]: 0.00 ± 0.00 mm

SMILES: COc1c(C)c(C)c2c(c1C)CCC(C)(CCNC(=N)N)O2 (stereo not drawn) [Compound (10), N-[2-(3,4-Dihydro-6-methoxy-2,5,7,8-tetramethyl-2H-benzopyran-2-yl)ethyl]guanidine]
- inhibition in vivo at 50 mg/kg [2, 5]: 72.6%
- Ulcer index (mean ± S.E.) [2, 6]: 3.04 ± 1.33 mm

SMILES: CC(C)=CCOc1ccc(/C=C/C(=O)c2ccc(OCC=C(C)C)cc2OCC(=O)O)cc1 [Sofalcone, 2'-carboxymethoxy-4,4'-bis(3-methyl-2-butenyloxy)calcon, reference compound]
- inhibition in vivo at 25 mg/kg [2, 7]: 25.8%
- inhibition in vivo at 25 mg/kg [2, 9]: 25.8%
- inhibition in vivo at 50 mg/kg [2, 5]: 38.3%
- inhibition in vivo at 50 mg/kg [2, 10]: 38.3%
- inhibition in vivo at 100 mg/kg [2, 11]: 39.8%
- inhibition in vivo at 300 mg/kg ([2]; Rattus norvegicus, po, 1 h, Table 12, 300 mg/kg p.o.): 100%
- Ulcer index (mean ± S.E.) [2, 12]: 7.37 ± 0.54 mm
- Ulcer index (mean ± S.E.) [2, 13]: 6.13 ± 0.91 mm
- Ulcer index (mean ± S.E.) [2, 14]: 5.98 ± 1.04 mm
- Ulcer index (mean ± S.E.) ([2]; Table 12, 300 mg/kg p.o., control 9.93 ± 0.91): 0.00 ± 0.00 mm

SMILES: COc1c(C)c(C)c2c(c1C)CCC(C)(CCN1CCN(CC=C(C)CCC=C(C)C)CC1)O2 (stereo not drawn) [Compound (14), 3,4-Dihydro-6-methoxy-2-[2-[4-(3,7-dimethyl-2,6-octadienyl)piperazin-1-yl]ethyl]-2,5,7,8-tetramethyl-2H-benzopyran]
- inhibition in vivo at 50 mg/kg [2, 3]: 100%
- Ulcer index (mean ± S.E.) [2, 4]: 0.00 ± 0.00 mm

SMILES: COc1ccc2c(c1)CCC(C)(CC(=O)NC(=N)N)O2 (stereo not drawn) [Compound (6), N-(3,4-Dihydro-6-methoxy-2-methyl-2H-benzopyran-2-yl)acetylguanidine]
- inhibition in vivo at 25 mg/kg [2, 9]: 79.1%
- Ulcer index (mean ± S.E.) [2, 15]: 2.03 ± 1.04 mm

SMILES: COc1c(C)c(C)c2c(c1C)CCC(C)(CCC(=O)NC(=N)N)O2 (stereo not drawn) [Compound (5)]
- inhibition in vivo at 25 mg/kg [2, 9]: 100%
- Ulcer index (mean ± S.E.) [2, 16]: 0.00 ± 0.00 mm

SMILES: COc1cc(CN2CCN(CCC3(C)CCc4c(C)c(OC)c(C)c(C)c4O3)CC2)cc(OC)c1OC (stereo not drawn) [Compound (18), 3,4-Dihydro-6-methoxy-2-[2-[4-(3,4,5-trimethoxybenzyl)piperazin-1-yl]ethyl]-2,5,7,8-tetramethyl-2H-benzopyran]
- inhibition in vivo at 50 mg/kg ([2]; Rattus norvegicus, po, 1 h, Table 10, 50 mg/kg p.o.): 83.2%
- Ulcer index (mean ± S.E.) ([2]; Table 10, 50 mg/kg p.o., control 5.98 ± 1.96): 0.98 ± 0.98 mm

SMILES: CNC(=S)NCCC1(C)CCc2c(C)c(OC)c(C)c(C)c2O1 (stereo not drawn) [Compound (9), N-[2-(3,4-Dihydro-6-methoxy-2,5,7,8-tetramethyl-2H-benzopyran-2-yl)ethyl]-N'-methylthiourea]
- inhibition in vivo at 25 mg/kg [2, 9]: 47.3%
- inhibition in vivo at 50 mg/kg [2, 5]: 95.4%
- Ulcer index (mean ± S.E.) [2, 16]: 5.84 ± 0.75 mm

SMILES: COc1ccc2c(c1)OC(C)(CC(=O)NC(=N)N)CC2 (stereo not drawn) [Compound (7), N-(3,4-Dihydro-7-methoxy-2-methyl-2H-benzopyran-2-yl)acetylguanidine]
- inhibition in vivo at 12.5 mg/kg [2, 8]: 71.9%
- inhibition in vivo at 25 mg/kg [2, 9]: 84.2%
- Ulcer index (mean ± S.E.) ([2]; Table 5, 12.5 mg/kg p.o., control 11.09 ± 1.49): 3.12 ± 0.66 mm
- Ulcer index (mean ± S.E.) [2, 15]: 1.53 ± 0.66 mm

SMILES: COc1c(C)c(C)c2c(c1C)CCC(C)(C(=O)NC(=N)N)O2 (stereo not drawn) [Compound (4), N-(3,4-Dihydro-6-methoxy-2,5,7,8-tetramethyl-2H-benzopyran-2-yl)carbonylguanidine]
- inhibition in vivo at 25 mg/kg [2, 9]: 100%
- Ulcer index (mean ± S.E.) [2, 15]: 0.00 ± 0.00 mm

SMILES: CC(C)=CCOc1c(C)c(C)c2c(c1C)CCC(C)(CC(=O)NC(=N)N)O2 (stereo not drawn) [Compound (3), N-(3,4-Dihydro-6-prenyloxy-2,5,7,8-tetramethyl-2H-benzopyran-2-yl)acetylguanidine]
- inhibition in vivo at 25 mg/kg [2, 9]: 98.7%
- Ulcer index (mean ± S.E.) [2, 16]: 0.14 ± 0.14 mm

SMILES: CCOc1c(C)c(C)c2c(c1C)CCC(C)(CC(=O)NC(=N)N)O2 (stereo not drawn) [Compound (2), N-(3,4-Dihydro-6-ethoxy-2,5,7,8-tetramethyl-2H-benzopyran-2-yl)acetylguanidine]
- inhibition in vivo at 25 mg/kg [2, 9]: 89%
- Ulcer index (mean ± S.E.) [2, 16]: 0.50 ± 0.34 mm
